Measured values from patent US20250101436A1, “APTAMERS AND SMALL MOLECULE LIGANDS” (MeiraGTx UK II Limited, priority 2021, published 2025).

Legend:
N5-12G6 riboswitch = experiment: Firefly luciferase assay, N5-12G6 riboswitch in HEK293 cells; details: Homo sapiens; for fold induction at 2 µM: HEK293, read-out: Fold induction 2 μM (HEK), 12G6 riboswitch, luciferase, HEK293, 2 μM; for fold induction at 25 µM: HEK293, read-out: Fold induction 25 μM (HEK), 12G6 riboswitch, luciferase, HEK293, 25 μM; for fold induction at 3.3 µM: HEK293, read-out: Fold induction 3.3 μM (HEK), 12G6 riboswitch, luciferase, HEK293, 3.3 μM
Method: Transfection: 3.5×10^4 human embryonic kidney (HEK) 293 cells were plated in a 96-well flat bottom plate the day before transfection. Plasmid DNA (500 ng) was added to a tube or a 96-well U-bottom plate. Separately, TransIT-293 reagent (Mirus; 1.4 L) was added to 50 μL Optimum I media (Life Technologies) and allowed to sit for 5 minutes at room temperature (RT). Then, 50 μL of this diluted transfection reagent was added to the DNA, mixed, and incubated at RT for 20 min. Finally, 7 μL of this solution was added to a well of cells in the 96-well plate. Four hours after transfection, medium containing transfection solution was replaced by medium with either TPP or fursultiamine as aptamer ligands.
Firefly luciferase assay of cultured cells: Twenty-four hours after media change, plates were removed from the incubator, and equilibrated to RT for several minutes on a lab bench, then aspirated. Glo-lysis buffer (Promega, 100 μL, RT) was added, and the plates allowed to remain at RT for at least 5 minutes. Then, the well contents were mixed by 50 μL trituration, and 20 μL of each sample was mixed with 20 μL of bright-glo reagent (Promega) that had been diluted to 10% in glo-lysis buffer. 96 wells were spaced on an opaque white 384-well plate. Following a 5 min incubation at RT, luminescence was measured using a Tecan machine with 500 ms read time. The luciferase activity was expressed as mean arbitrary light units (ALU)±S.D., and fold induction was calculated as the quotient of the luciferase activity obtained from cells with TPP or analog compound treatment divided by the luciferase activity obtained from cells without TPP or analog compound treatment.

[1] = system: luciferase gene expression in HEK 293 cells in response to Comp. 004; experiment: Screen of riboswitch constructs with 12C6-1 variant aptamers (libraries N1-N5) against Comp. 004, luciferase in HEK 293 cells; type: cell-based, human
Method in brief: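 Riboswitch constructs carrying 12C6-1 aptamer variants, randomized in J2-4, J2-3/J3-3a/J3a-2/P3, L3a, J4-5/J5-4/P4 or L5 regions (libraries N1-N5), cloned into an intron-exon-intron cassette driving luciferase. Screened in HEK 293 cells with 25 µM Comp. 004; read-out is fold induction of gene expression versus parent Luci-12C6-1.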

[2] = library N5 variant aptamers (L5, X16-X21 randomized) of 12C6-1 in riboswitch constructs, in response to Comp. 004 treatment, HEK 293 cells
[3] = library N2 variant aptamers (J2-3, P3-J3-3a, J3a-2 randomized) of 12C6-1 in riboswitch constructs, in response to Comp. 004, HEK 293 cells
[4] = library N1 (J2-4), HEK 293, 25 M [sic] Comp. 004

Molecule | fold induction at 2 µM (N5-12G6 riboswitch) | Fold (induction of luciferase gene expression) [1, 2] | further results
Fc1c(CNc2cncc(Cl)c2N2CCNCC2)ccc2nccnc12 [compound 078, 5-chloro-N-((5-fluoroquinoxalin-6-yl)methyl)-4-(piperazin-1-yl)pyridin-3-amine] | 6.1 | – | –
Fc1cc2nccnc2cc1CNc1cncc(Cl)c1N1CCNCC1 [compound 052, 5-chloro-N-((7-fluoroquinoxalin-6-yl)methyl)-4-(piperazin-1-yl)pyridin-3-amine] | 18.9 | – | –
c1cc(N2CC3CNCC3C2)c(NCc2ccc3nccnc3c2)cn1 (stereo not shown) [compound 032, 4-(hexahydropyrrolo[3,4-c]pyrrol-2(1H)-yl)-N-(quinoxalin-6-ylmethyl)pyridin-3-amine] | – | – | fold induction at 25 µM (N5-12G6 riboswitch): 69.4
Fc1cncc(NCc2cc(F)c3nccnc3c2)c1N1CCNCC1 [compound 080, 5-fluoro-N-((8-fluoroquinoxalin-6-yl)methyl)-4-(piperazin-1-yl)pyridin-3-amine] | 31.2 | – | –
Cc1cc2nccnc2cc1CNc1cnccc1N1CCNCC1 [compound 069, N-((7-methylquinoxalin-6-yl)methyl)-4-(piperazin-1-yl)pyridin-3-amine] | 28.3 | – | –
Fc1nccc(N2CCNCC2)c1NCc1ccc2nccnc2c1 [compound 051, 2-fluoro-4-(piperazin-1-yl)-N-(quinoxalin-6-ylmethyl)pyridin-3-amine] | 2.7 | – | –
c1cc(N2CCOCC2)c(NCc2ccc3nccnc3c2)cn1 [compound 039, 4-morpholino-N-(quinoxalin-6-ylmethyl)pyridin-3-amine] | – | – | fold induction at 25 µM (N5-12G6 riboswitch): 6
Fc1cc(CNc2cnccc2O[C@@H]2CCNC2)cc2nccnc12 [compound 105, (R)—N-((8-fluoroquinoxalin-6-yl)methyl)-4-(pyrrolidin-3-yloxy)pyridin-3-amine] | 37.7 | – | –
Cc1cncc(NCc2ccc3nccnc3c2)c1N1CCNCC1 [compound 023, 5-Methyl-4-(piperazin-1-yl)-N-(quinoxalin-6-ylmethyl)pyridin-3-amine] | 67.4 | – | –
C[C@@H]1CN(c2ccncc2NCc2cc3nccnc3cc2Cl)CCN1 [compound 058, (R)—N-((7-chloroquinoxalin-6-yl)methyl)-4-(3-methylpiperazin-1-yl)pyridin-3-amine] | 6.1 | – | –
Fc1cc(CNc2cncc(Cl)c2O[C@@H]2CCNC2)cc2nccnc12 [compound 119, (R)-5-chloro-N-((8-fluoroquinoxalin-6-yl)methyl)-4-(pyrrolidin-3-yloxy)pyridin-3-amine] | 32.5 | – | –
C[C@H]1CN(c2ccncc2NCc2cc3nccnc3cc2Cl)CCN1 [compound 057, (S)—N-((7-chloroquinoxalin-6-yl)methyl)-4-(3-methylpiperazin-1-yl)pyridin-3-amine] | 22.3 | – | –
C[C@@H]1CN(c2ccncc2NCc2ccc3nccnc3c2)CCN1 [compound 043, (R)-4-(3-methylpiperazin-1-yl)-N-(quinoxalin-6-ylmethyl)pyridin-3-amine] | – | – | fold induction at 3.3 µM (N5-12G6 riboswitch): 31
Fc1cc2nccnc2cc1CNc1cncc(F)c1N1CCNCC1 [compound 082, 5-fluoro-N-((7-fluoroquinoxalin-6-yl)methyl)-4-(piperazin-1-yl)pyridin-3-amine] | 24.7 | – | –
NC1CCN(c2ccncc2NCc2ccc3nccnc3c2)CC1 [compound 033, 4-(4-aminopiperidin-1-yl)-N-(quinoxalin-6-ylmethyl)pyridin-3-amine] | – | – | fold induction at 25 µM (N5-12G6 riboswitch): 7.8
c1cnc2cc(CNc3cnc4[nH]ccc4c3N3CCNCC3)ccc2n1 [compound 114, 4-(piperazin-1-yl)-N-(quinoxalin-6-ylmethyl)-1H-pyrrolo[2,3-b]pyridin-5-amine] | 60.1 | – | –
Fc1cncc(NCc2ccc3nccnc3c2)c1N1CCNCC1 [compound 073, 5-fluoro-4-(piperazin-1-yl)-N-(quinoxalin-6-ylmethyl)pyridin-3-amine] | 43.9 | – | –
C[C@H]1CN(c2ccncc2NCc2ccc3nccnc3c2)CCN1 [compound 042, (S)-4-(3-methylpiperazin-1-yl)-N-(quinoxalin-6-ylmethyl)pyridin-3-amine] | – | – | fold induction at 3.3 µM (N5-12G6 riboswitch): 29
C[C@H]1CN(c2c(F)cncc2NCc2ccc3nccnc3c2)CCN1 [compound 103, (S)-5-fluoro-4-(3-methylpiperazin-1-yl)-N-(quinoxalin-6-ylmethyl)pyridin-3-amine] | 23.3 | – | –
Fc1cc2nccnc2cc1CNc1cnccc1O[C@@H]1CCNC1 [compound 107, (R)—N-((7-fluoroquinoxalin-6-yl)methyl)-4-(pyrrolidin-3-yloxy)pyridin-3-amine] | 48.7 | – | –
FC(F)(F)c1cc(N2CCNCC2)c(NCc2ccc3nccnc3c2)cn1 [compound 117, 4-(piperazin-1-yl)-N-(quinoxalin-6-ylmethyl)-6-(trifluoromethyl)pyridin-3-amine] | 30.6 | – | –
Cc1cc(CNc2cnccc2O[C@@H]2CCNC2)cc2nccnc12 [compound 122, (R)—N-((8-methylquinoxalin-6-yl)methyl)-4-(pyrrolidin-3-yloxy)pyridin-3-amine] | 35.8 | – | –
N5_8H7 (DNA CTGGGGAGTCCT; chemistry not given here) | – | 1218.5 fold | –
N2_2A10 (CTGGGGAGTCCTTCATGC; chemistry not given here) | – | – | Fold (induction of luciferase gene expression) [1, 3]: 1.1 fold
N2_2A11 (CTGGGGAGTCCTTCATGC; chemistry not given here) | – | – | Fold (induction of luciferase gene expression) [1, 3]: 1.1 fold
N5_1G10 (CTGGGGAGTCCT; chemistry not given here) | – | 1000.2 fold | –
N1_2D2 (CTGGGGAGTCCTTCATGCGGGGC; chemistry not given here) | – | – | Fold (induction of luciferase gene expression) [1, 4]: 102.23 fold
N1_2G4 (CTGGGGAGTCCTTCATGCGGGGC; chemistry not given here) | – | – | Fold (induction of luciferase gene expression) [1, 4]: 9.06 fold

Molecule | fold induction at 2 µM (N5-12G6 riboswitch) | Fold (induction of luciferase gene expression) [1, 2] | further results
N5_7E8 (DNA CTGGGGAGTCCT; chemistry not given here) | – | 879.9 fold | –
N2_2B5 (CTGGGGAGTCCTTCATGC; chemistry not given here) | – | – | Fold (induction of luciferase gene expression) [1, 3]: 1.0 fold
N5_6E1 (CTGGGGAGTCCT; chemistry not given here) | – | 725.2 fold | –
N2_2F6 (DNA CTGGGGAGTCCTTCATGC; chemistry not given here) | – | – | Fold (induction of luciferase gene expression) [1, 3]: 1.0 fold
N1_2G6 (CTGGGGAGTCCTTCATGCGGGGC; chemistry not given here) | – | – | Fold (induction of luciferase gene expression) [1, 4]: 11.00 fold
N5_14B10 (CTGGGGAGTCCT; chemistry not given here) | – | 1133.0 fold | –
N5_7H1 (DNA CTGGGGAGTCCT; chemistry not given here) | – | 158.5 fold | –
N5_6B6 (CTGGGGAGTCCT; chemistry not given here) | – | 659.7 fold | –
N5_1C5 (CTGGGGAGTCCT; chemistry not given here) | – | 966.1 fold | –
N5_1D10 (CTGGGGAGTCCT; chemistry not given here) | – | 762.7 fold | –
N1_2F1 (CTGGGGAGTCCTTCATGCGGGGC; chemistry not given here) | – | – | Fold (induction of luciferase gene expression) [1, 4]: 8.34 fold
N5_1B6 (CTGGGGAGTCCT; chemistry not given here) | – | 1381.8 fold | –
N2_2G9 (CTGGGGAGTCCTTCATGC; chemistry not given here) | – | – | Fold (induction of luciferase gene expression) [1, 3]: 1.3 fold
N1_2E2 (CTGGGGAGTCCTTCATGCGGGGC; chemistry not given here) | – | – | Fold (induction of luciferase gene expression) [1, 4]: 7.86 fold
N2_2F11 (DNA CTGGGGAGTCCTTCATGC; chemistry not given here) | – | – | Fold (induction of luciferase gene expression) [1, 3]: 1.1 fold
N5_1D3 (CTGGGGAGTCCT; chemistry not given here) | – | 697.1 fold | –
N2_2C12 (CTGGGGAGTCCTTCATGC; chemistry not given here) | – | – | Fold (induction of luciferase gene expression) [1, 3]: 1.1 fold
N5_7H11 (DNA CTGGGGAGTCCT; chemistry not given here) | – | 1105.2 fold | –
N1_2H10 (CTGGGGAGTCCTTCATGCGGGGC; chemistry not given here) | – | – | Fold (induction of luciferase gene expression) [1, 4]: 16.82 fold
N2_2H4 (CTGGGGAGTCCTTCATGC; chemistry not given here) | – | – | Fold (induction of luciferase gene expression) [1, 3]: 1.0 fold
N5_8F11 (DNA CTGGGGAGTCCT; chemistry not given here) | – | 1282.8 fold | –
N5_8F3 (DNA CTGGGGAGTCCT; chemistry not given here) | – | 862.0 fold | –
N5_1E1 (CTGGGGAGTCCT; chemistry not given here) | – | 566.4 fold | –
N5_12G11 (CTGGGGAGTCCT; chemistry not given here) | – | 1043.8 fold | –
N5_1F4 (CTGGGGAGTCCT; chemistry not given here) | – | 958.5 fold | –
N2_2G8 (DNA CTGGGGAGTCCTTCATGC; chemistry not given here) | – | – | Fold (induction of luciferase gene expression) [1, 3]: 1.1 fold
N2_2H11 (CTGGGGAGTCCTTCATGC; chemistry not given here) | – | – | Fold (induction of luciferase gene expression) [1, 3]: 1.2 fold
